Experimental data as given in patent US12157713B2, “Conjugated oligoelectrolytes as antimicrobial agents” (Nanyang Technological University, priority 2018, dated 2024).

test system: organism classes (Gram-negative, Gram-positive and fungi); assay: Single-dose screening summary by organism class; format: cell-based; settings: 32 μg/mL; 0 = no activity
Procedure: (§1) Percentage growth inhibition of an individual sample was calculated based on growth in a reference well determined from negative controls (media only) and positive controls (bacterial/fungal media without inhibitors). Negative inhibition values indicate that the growth rate (or OD600) is higher compared to the reference growth (bacteria/fungi only, set to 0% inhibition). The growth rates for all bacteria and fungi may vary at −/+10%, which were within the reported normal distribution of bacterial/fungal growth. Any significant variations (or outliers/hits) were identified by the modified Z-Score, and the active compounds were selected by a combination of inhibition values and Z-Score.
Z-Score analysis was carried out to investigate outliers or hits among the samples. The Z-Score was calculated based on the sample population using a modified Z-Score method which accounts for possible skewed sample population. The modified method uses median and MAD ([…]) instead of average and standard deviation, and a scaling factor (Iglewicz, B. & Hoaglin, D. C. Volume 16: How to Detect and Handle Outliers. The ASQC Basic Reference in Quality Control: Statistical Techniques, 1993). The equation to calculate the modified Z-Score value is as follow: […]
(§2) A M(i) value of >|2.5| (absolute) would classify the sample as outliers or hits. Active samples were denoted as compounds with inhibition values equal to or above 80% and absolute Z-Score above |2.5| for either replicate (n=2 on different plates). Partial active samples were denoted as compounds with inhibition values from 50% to <80%, or absolute Z-Score below |2.5|.

For `CN(C)CC[N+](C)(C)CCCCOc1ccc(/C=C/c2ccc(/C=C/c3ccc(OCCCC[N+](C)(C)CCN(C)C)cc3)cc2)cc1` [COE-T42N], which “Activity: number of organism classes the compound has been found active against” value is on record?
Its value is 3.

For `C[N+](C)(C)CC[N+](C)(C)CCCCOc1ccc(/C=C/c2ccc(OCCCC[N+](C)(C)CC[N+](C)(C)C)cc2)cc1` [COE-D42], which “Activity: number of organism classes the compound has been found active against” value is on record?
Its value is 1.

test system: Candida albicans ATCC 90028; assay: Single-dose growth inhibition, Ca; format: cell-based; settings: ATCC90028, 32 μg/mL single dose, n=2, read-out: Growth inhibition Ca
Procedure: (§3) Growth inhibition of C. albicans was determined by measuring the absorbance at 530 nm (OD530), while the growth inhibition of C. neoformans was determined by measuring the difference in absorbance between 600 and 570 nm (OD600-570), after the addition of resazurin (0.001 wt. % final concentration) and incubation at 35° C. for additional 2 hrs. The absorbance was measured using a Biotek Synergy HTX plate reader. The relative growth inhibition was calculated for each well, relative to that determined from a negative control (media only) and positive control (bacteria without inhibitors) on the same plate as references. A single dose of 32 μg/mL of COE (final concentration) was used for each test.
as §1, §2

How did the inhibition at 32 µg/mL turn out when `CN(C)CC[N+](C)(C)CCCCOc1ccc(/C=C/c2ccc(/C=C/c3ccc(OCCCC[N+](C)(C)CCN(C)C)cc3)cc2)cc1` [COE-T42N] was run?
The inhibition at 32 µg/mL was > 80%.

same assay, conditions: ATCC90028, read-out: Growth inhibition Ca

With `C[N+](C)(C)CC[N+](C)(C)CCCCOc1ccc(/C=C/c2ccc(OCCCC[N+](C)(C)CC[N+](C)(C)C)cc2)cc1` [COE-D42] as the compound, how does the inhibition at 32 µg/mL read?
Its inhibition at 32 µg/mL is < 50%.

test system: Acinetobacter baumannii ATCC 19606; assay: Single-dose growth inhibition, Ab; format: cell-based; settings: ATCC19606, 32 μg/mL single dose, n=2, read-out: Growth inhibition Ab
Procedure: (§4) Inhibition of bacterial growth was determined by measuring the absorbance at 600 nm (OD600), using a Tecan M1000 Pro monochromator plate reader. Growth inhibition was calculated for each well, relative to the reference growths determined from a negative control (media only) and positive control (bacteria without inhibitors) incubated in the same plate. A single dose of 32 μg/mL of COE (final concentration) was used for each test.
as §1, §2

How did the inhibition at 32 µg/mL turn out when `CN(C)CC[N+](C)(C)CCCCOc1ccc(/C=C/c2ccc(/C=C/c3ccc(OCCCC[N+](C)(C)CCN(C)C)cc3)cc2)cc1` [COE-T42N] was run?
Its inhibition at 32 µg/mL is > 80%.

same assay, conditions: ATCC19606, read-out: Growth inhibition Ab

For `C[N+](C)(C)CC[N+](C)(C)CCCCOc1ccc(/C=C/c2ccc(OCCCC[N+](C)(C)CC[N+](C)(C)C)cc2)cc1` [COE-D42], which inhibition at 32 µg/mL is on record?
The inhibition at 32 µg/mL was < 50%.

test system: Escherichia coli FDA control ATCC 25922; assay: Single-dose growth inhibition, Ec; format: cell-based; settings: ATCC25922, 32 μg/mL single dose, n=2, read-out: Growth inhibition Ec
Procedure: as §4, §1, §2

With `CN(C)CC[N+](C)(C)CCCCOc1ccc(/C=C/c2ccc(/C=C/c3ccc(OCCCC[N+](C)(C)CCN(C)C)cc3)cc2)cc1` [COE-T42N] as the compound, how does the inhibition at 32 µg/mL read?
The inhibition at 32 µg/mL was > 80%.

same assay, conditions: ATCC25922, read-out: Growth inhibition Ec

For `C[N+](C)(C)CC[N+](C)(C)CCCCOc1ccc(/C=C/c2ccc(OCCCC[N+](C)(C)CC[N+](C)(C)C)cc2)cc1` [COE-D42], which inhibition at 32 µg/mL is on record?
Its inhibition at 32 µg/mL is < 50%.

test system: Klebsiella pneumoniae MDR ATCC 700603; assay: Single-dose growth inhibition, Kp; format: cell-based; settings: ATCC700603, 32 μg/mL single dose, n=2, read-out: Growth inhibition Kp
Procedure: as §4, §1, §2

Which inhibition at 32 µg/mL does the source give for `CN(C)CC[N+](C)(C)CCCCOc1ccc(/C=C/c2ccc(/C=C/c3ccc(OCCCC[N+](C)(C)CCN(C)C)cc3)cc2)cc1` [COE-T42N] here?
Its inhibition at 32 µg/mL is < 50%.

same assay, conditions: ATCC700603, read-out: Growth inhibition Kp

For `C[N+](C)(C)CC[N+](C)(C)CCCCOc1ccc(/C=C/c2ccc(OCCCC[N+](C)(C)CC[N+](C)(C)C)cc2)cc1` [COE-D42], which inhibition at 32 µg/mL is on record?
Its inhibition at 32 µg/mL is < 50%.

test system: Pseudomonas aeruginosa ATCC 27853; assay: Single-dose growth inhibition, Pa; format: cell-based; settings: ATCC27853, 32 μg/mL single dose, n=2, read-out: Growth inhibition Pa
Procedure: as §4, §1, §2

With `CN(C)CC[N+](C)(C)CCCCOc1ccc(/C=C/c2ccc(/C=C/c3ccc(OCCCC[N+](C)(C)CCN(C)C)cc3)cc2)cc1` [COE-T42N] as the compound, how does the inhibition at 32 µg/mL read?
Its inhibition at 32 µg/mL is < 50%.

same assay, conditions: ATCC27853, read-out: Growth inhibition Pa

With `C[N+](C)(C)CC[N+](C)(C)CCCCOc1ccc(/C=C/c2ccc(OCCCC[N+](C)(C)CC[N+](C)(C)C)cc2)cc1` [COE-D42] as the compound, how does the inhibition at 32 µg/mL read?
Its inhibition at 32 µg/mL is < 50%.

test system: E. coli K12; assay: MIC by broth microdilution against E. coli K12; format: cell-based; settings: Escherichia coli, K12, 18 h, read-out: MIC against E. coli K12
Procedure: The respective minimum inhibition concentration (MIC) of each COE molecule was determined using a broth microdilution method. Briefly, COEs were diluted via a 2-fold dilution series in 100 μL of either Muller Hinton Broth (MHB) for E. coli and S. aureus or Brain Heart Infusion Broth (BHI) for E. faecalis in a 96-well plate to achieve the desired final concentration. Subsequently, each well was inoculated with 100 μL of 1×10^6 colony forming units (CFU) mL^−1 of the respective microorganism in MHB for E. coli or BHI for E. faecalis to achieve an inoculum density of 5×10^5 CFU mL^−1. The plates were then incubated at 37° C. with shaking (200 rpm) for 18 hrs. […] The results were obtained in triplicate.
The MIC values of COE-D4, COE-D6 and COE-D8 against the reference strain E. coli K12, pathogenic E. coli UT189, and the Gram positive pathogen Enterococcus faecalis OG1RF were determined using a broth microdilution method as described in the general method above. The MICs for E. coli K12 were determined to be 128, 16, and 4 μg mL^−1 for COE-D4, COE-D6, and COE-D8, respectively (FIG. 5a). […] This is not surprising as these two organisms differ in the capsular polysaccharides that they expressed, which are known to hinder the uptake of antimicrobials and mitigate their potency (M. A. Campos, et al., Infect. Immun. 2004, 72, 7107-7114). A K-type capsid comprising α2-8-linked sialic acid is excreted by UT189 and is known to be an important virulence factor for this organism (C. Whitfield, et al., Mol. Microbiol. 1999, 31, 1307-1319; G. G. Anderson, et al., Infect. Immun. 2010, 78, 963-975).

`C[N+](C)(C)CC[N+](C)(C)CCCCOc1ccc(/C=C/c2ccc(OCCCC[N+](C)(C)CC[N+](C)(C)C)cc2)cc1` [COE-D42] was tested. Which MIC did it give?
The MIC was 128 µg/mL.

same assay, conditions: Escherichia coli, K12; broth microdilution, MHB, 18 hrs; read-out: MIC against E. coli K12

With `CN(C)CC[N+](C)(C)CCCCOc1ccc(/C=C/c2ccc(/C=C/c3ccc(OCCCC[N+](C)(C)CCN(C)C)cc3)cc2)cc1` [COE-T42N] as the compound, how does the MIC read?
The MIC was 8 µg/mL.

test system: Cryptococcus neoformans var. grubii H99; ATCC 208821; assay: Single-dose growth inhibition, Cn; format: cell-based; settings: ATCC208821, 32 μg/mL single dose, n=2, read-out: Growth inhibition Cn
Procedure: as §3, §1, §2

How did the inhibition at 32 µg/mL turn out when `CN(C)CC[N+](C)(C)CCCCOc1ccc(/C=C/c2ccc(/C=C/c3ccc(OCCCC[N+](C)(C)CCN(C)C)cc3)cc2)cc1` [COE-T42N] was run?
Its inhibition at 32 µg/mL is > 80%.

same assay, conditions: ATCC208821, read-out: Growth inhibition Cn

How did the inhibition at 32 µg/mL turn out when `C[N+](C)(C)CC[N+](C)(C)CCCCOc1ccc(/C=C/c2ccc(OCCCC[N+](C)(C)CC[N+](C)(C)C)cc2)cc1` [COE-D42] was run?
The inhibition at 32 µg/mL was < 50%.

test system: Staphylococcus aureus MRSA ATCC 43300; assay: Single-dose growth inhibition, Sa; format: cell-based; settings: 32 μg/mL single dose, n=2, read-out: Growth inhibition Sa
Procedure: as §4, §1, §2

How did the inhibition at 32 µg/mL turn out when `CN(C)CC[N+](C)(C)CCCCOc1ccc(/C=C/c2ccc(/C=C/c3ccc(OCCCC[N+](C)(C)CCN(C)C)cc3)cc2)cc1` [COE-T42N] was run?
The inhibition at 32 µg/mL was > 80%.

same assay, conditions: read-out: Growth inhibition Sa

How did the inhibition at 32 µg/mL turn out when `C[N+](C)(C)CC[N+](C)(C)CCCCOc1ccc(/C=C/c2ccc(OCCCC[N+](C)(C)CC[N+](C)(C)C)cc2)cc1` [COE-D42] was run?
Its inhibition at 32 µg/mL is > 80%.
